{"source": "patent US20250230193A1", "about": "“CYCLIC COMPOUND HAVING SELECTIVE KRAS INHIBITORY EFFECT ON HRAS AND NRAS” (CHUGAI SEIYAKU KABUSHIKI KAISHA, priority 2022, published 2025)", "key": {"[1]": {"biological_target": "GDP-bound HRAS wild-type protein (Homo sapiens, UniProt P01112)", "sequence (P01112 whole entry)": "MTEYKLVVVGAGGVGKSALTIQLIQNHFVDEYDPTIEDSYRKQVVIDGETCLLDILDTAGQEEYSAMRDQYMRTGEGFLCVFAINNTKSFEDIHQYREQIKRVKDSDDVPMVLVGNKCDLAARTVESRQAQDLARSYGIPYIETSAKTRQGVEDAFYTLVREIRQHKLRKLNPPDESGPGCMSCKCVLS", "assay": "Binding to HRAS by surface plasmon resonance (SPR), Single Cycle Kinetics", "conditions": "for HRAS/KRAS (ratio of KD value with respect to HRAS to KD value with respect to KRAS): GDP-bound HRAS wild-type vs GDP-bound KRAS wild-type"}, "[2]": {"biological_target": "GDP-bound NRAS wild-type protein (Homo sapiens, UniProt P01111)", "sequence (P01111 whole entry)": "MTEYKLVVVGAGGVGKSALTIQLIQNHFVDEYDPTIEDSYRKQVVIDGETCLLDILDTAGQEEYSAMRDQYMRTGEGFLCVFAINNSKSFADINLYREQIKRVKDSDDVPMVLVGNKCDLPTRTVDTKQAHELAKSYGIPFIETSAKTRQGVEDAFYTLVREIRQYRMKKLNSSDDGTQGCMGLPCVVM", "assay": "Binding to NRAS by surface plasmon resonance (SPR), Single Cycle Kinetics", "conditions": "for NRAS/KRAS (ratio of KD value with respect to NRAS to KD value with respect to KRAS): GDP-bound NRAS wild-type vs GDP-bound KRAS wild-type"}}, "note": "*1 amine or outer side, *2 acyl side, *3 side chain or, on linkers, in order; H or OH if unused. Where a SMILES comes first, the peptide text is derived from it. Bridges are numbered along the chain shown (N, C = ends). [ ]: non-standard residue; d: D form. The star is where a group is joined. hPhe(3-Cl-4-CF3) = N[C@@H](CCc1ccc(C(F)(F)F)c(Cl)c1)C(=O)O; NPrPhe(4-CF3) = CCCN[C@@H](Cc1ccc(C(F)(F)F)cc1)C(=O)O; X48 = C=CCCN([C@@H](Cc1ccc(C)cc1)C(=O)[*:2])[*:1]; Pip(4,4-F2) = O=C(O)[C@@H]1CC(F)(F)CCN1; NMeGly(cPent) = CN[C@H](C(=O)O)C1CCCC1; NMeD = CN[C@@H](CC(=O)O)C(=O)O; NMeL = CN[C@@H](CC(C)C)C(=O)O; Morpholide = C1CN(*)CCO1; NMeA = CN[C@@H](C)C(=O)O; Ac5c = NC1(C(=O)O)CCCC1; Aze = O=C(O)[C@@H]1CCN1; Sar = CNCC(=O)O", "data": [{"smiles": "CC[C@H](C)[C@@H]1NC(=O)[C@H](CC(C)C)N(C)C(=O)C[C@@H](C(=O)N2CCOCC2)N(C)C(=O)[C@H](C2CCCC2)N(C)C(=O)C2(CC(F)(F)C2)NC(=O)[C@@H]2CCCN2C(=O)[C@H](CCc2cc(F)c(C(F)(F)F)c(F)c2)NC(=O)CN(C)C(=O)[C@H](Cc2ccc(C(F)(F)F)cc2)N2CCCCC[C@@H](C2=O)N(C)C(=O)CN(C)C1=O", "note": "[PP0499]", "values": [{"measurement": "HRAS/KRAS (ratio of KD value with respect to GDP-bound HRAS wild-type protein to KD value with respect to KRAS)", "setting": "[1]; SPR", "value": "B (a compound having 3 or more and less than 10 is denoted as B)"}, {"measurement": "NRAS/KRAS (ratio of KD value with respect to GDP-bound NRAS wild-type protein to KD value with respect to KRAS)", "setting": "[2]; SPR", "value": "B (a compound having 3 or more and less than 10 is denoted as B)"}]}, {"smiles": "C=CCCN1C(=O)[C@@H]2CCN2C(=O)[C@H](C)N(C)C(=O)[C@H]([C@@H](C)CC)NC(=O)[C@H](CC(C)C)N(C)C(=O)C[C@@H](C(=O)N2CCOCC2)N(C)C(=O)[C@H](C2CCCC2)N(C)C(=O)C2(CCCC2)NC(=O)[C@@H]2CCCN2C(=O)[C@H](CCc2ccc(C(F)(F)F)c(Cl)c2)NC(=O)CN(C)C(=O)[C@@H]1Cc1ccc(C)cc1", "note": "[PP0089] ([NMeL]I[NMeA][Aze][X48][Sar][hPhe(3-Cl-4-CF3)]P[Ac5c][NMeGly(cPent)][NMeD]-Morpholide; lactam N-11)", "values": [{"measurement": "HRAS/KRAS (ratio of KD for GDP-bound HRAS wild-type to KD for KRAS)", "setting": "[1]; SPR", "value": "B (a compound having 3 or more and less than 10 is denoted as B)"}, {"measurement": "NRAS/KRAS (ratio of KD for GDP-bound NRAS wild-type to KD for KRAS)", "setting": "[2]; SPR", "value": "C (A compound having a KD ratio of 0.1 or more and less than 3 is denoted as C)"}]}, {"smiles": "CCCN1C(=O)CN(C)C(=O)CN(C)C(=O)[C@H]([C@@H](C)CC)NC(=O)[C@H](CC(C)C)N(C)C(=O)C[C@@H](C(=O)N2CCOCC2)N(C)C(=O)[C@H](C2CCCC2)N(C)C(=O)C2(CCCC2)NC(=O)[C@@H]2CC(F)(F)CCN2C(=O)[C@H](CCc2ccc(C(F)(F)F)c(Cl)c2)NC(=O)CN(C)C(=O)[C@@H]1Cc1ccc(C(F)(F)F)cc1", "note": "[PP0264] ([NMeL]I[Sar][Sar][NPrPhe(4-CF3)][Sar][hPhe(3-Cl-4-CF3)][Pip(4,4-F2)][Ac5c][NMeGly(cPent)][NMeD]-Morpholide; lactam N-11)", "values": [{"measurement": "HRAS/KRAS (ratio of KD for GDP-bound HRAS wild-type to KD for KRAS)", "setting": "[1]; SPR", "value": "C (A compound having a KD ratio of 0.1 or more and less than 3 is denoted as C)"}, {"measurement": "NRAS/KRAS (ratio of KD for GDP-bound NRAS wild-type to KD for KRAS)", "setting": "[2]; SPR", "value": "B (a compound having 3 or more and less than 10 is denoted as B)"}]}, {"smiles": "CCCOC[C@H]1C(=O)N[C@@H]([C@@H](C)CC)C(=O)N(C2CC2)CC(=O)N(C)[C@H]2C/C=C\\CCN(C2=O)[C@@H](CC2CCC(F)(F)CC2)C(=O)N(C)CC(=O)N[C@@H](CCc2ccc(C(F)(F)F)c(OC)c2)C(=O)N2C[C@@H](C)C[C@H]2C(=O)N(C)C2(CCC2)C(=O)N(C)[C@@H](C2CCCC2)C(=O)N(C)[C@H](C(=O)N(C)C)CC(=O)N1C", "note": "[PP2379]", "values": [{"measurement": "HRAS/KRAS (ratio of KD value with respect to HRAS to KD value with respect to KRAS)", "setting": "[1]; SPR", "value": "A (a compound having 10 or more and less than 20 is denoted as A)"}, {"measurement": "NRAS/KRAS (ratio of KD value with respect to NRAS to KD value with respect to KRAS)", "setting": "[2]; SPR", "value": "A (a compound having 10 or more and less than 20 is denoted as A)"}]}, {"smiles": "CC[C@H](C)[C@@H]1NC(=O)[C@H](CC(C)C)N(C)C(=O)C[C@@H](C(=O)N2CCOCC2)N(C)C(=O)[C@H](C2CCCC2)N(C)C(=O)C2(CCCC2)NC(=O)[C@@H]2CCCN2C(=O)[C@H](CCc2ccc(C(F)(F)F)c(Cl)c2)NC(=O)CN(C)C(=O)[C@H](Cc2ccc(OC)cc2)N2C/C=C\\CC[C@@H](C2=O)N(C)C(=O)CN(C)C1=O", "note": "[PP0609]", "values": [{"measurement": "HRAS/KRAS (ratio of KD value with respect to GDP-bound HRAS wild-type protein to KD value with respect to KRAS)", "setting": "[1]; SPR", "value": "B (a compound having 3 or more and less than 10 is denoted as B)"}, {"measurement": "NRAS/KRAS (ratio of KD value with respect to GDP-bound NRAS wild-type protein to KD value with respect to KRAS)", "setting": "[2]; SPR", "value": "B (a compound having 3 or more and less than 10 is denoted as B)"}]}, {"smiles": "CCO[C@@H]1C[C@H]2C(=O)NC3(CC=CC3)C(=O)N(C)[C@@H](C3CCCC3)C(=O)N(C)[C@H](C(=O)N3CCOCC3)CC(=O)N(C)[C@@H](COC)C(=O)N[C@@H]([C@@H](C)CC)C(=O)N(C)CC(=O)N(C)[C@H]3CCCCCN(C3=O)[C@@H](Cc3ccc(C(F)(F)F)cc3)C(=O)N(C)CC(=O)N[C@@H](CCc3cc(F)c(C(F)(F)F)c(F)c3)C(=O)N2C1", "note": "[PP0842]", "values": [{"measurement": "HRAS/KRAS (ratio of KD value with respect to HRAS to KD value with respect to KRAS)", "setting": "[1]; KD ratio, SPR", "value": "B (a compound having 3 or more and less than 10 is denoted as B)"}, {"measurement": "NRAS/KRAS (ratio of KD value with respect to NRAS to KD value with respect to KRAS)", "setting": "[2]; KD ratio, SPR", "value": "B (a compound having 3 or more and less than 10 is denoted as B)"}]}, {"smiles": "CCO[C@@H]1C[C@H]2C(=O)NC3(CCC3)C(=O)N(C)[C@@H](C3CCCC3)C(=O)N(C)[C@H](C(=O)N(C)CC)CC(=O)N(C)[C@@H](CC3CCC3)C(=O)N[C@@H]([C@@H](C)CC)C(=O)N(C)CC(=O)N(C)[C@H]3C/C=C\\CCN(C3=O)[C@@H](Cc3ccc(C(F)(F)F)cc3)C(=O)N(C)CC(=O)N[C@@H](CCc3ccc(C(F)(F)F)c(OC)c3)C(=O)N2C1", "note": "[PP2825]", "values": [{"measurement": "HRAS/KRAS (ratio of KD value with respect to GDP-bound HRAS wild-type protein to KD value with respect to KRAS)", "setting": "[1]; class symbols", "value": "B (a compound having 3 or more and less than 10 is denoted as B)"}, {"measurement": "NRAS/KRAS (ratio of KD value with respect to GDP-bound NRAS wild-type protein to KD value with respect to KRAS)", "setting": "[2]; class symbols", "value": "A (a compound having 10 or more and less than 20 is denoted as A)"}]}, {"smiles": "CC[C@H](C)[C@@H]1NC(=O)[C@H](C)N(C)C(=O)C[C@@H](C(=O)N2CCOCC2)N(C)C(=O)[C@H](C2CCCC2)N(C)C(=O)C2(CCC2)NC(=O)[C@@H]2CC(F)(F)CN2C(=O)[C@H](CCc2cc(F)c(C(F)(F)F)c(F)c2)NC(=O)CN(C)C(=O)[C@H](Cc2ccc(C(F)(F)F)cc2)N2CCCCC[C@@H](C2=O)N(C)C(=O)CN(C)C1=O", "note": "[PP0471]", "values": [{"measurement": "HRAS/KRAS (ratio of KD value with respect to GDP-bound HRAS wild-type protein to KD value with respect to KRAS)", "setting": "[1]; SPR", "value": "B (a compound having 3 or more and less than 10 is denoted as B)"}, {"measurement": "NRAS/KRAS (ratio of KD value with respect to GDP-bound NRAS wild-type protein to KD value with respect to KRAS)", "setting": "[2]; SPR", "value": "B (a compound having 3 or more and less than 10 is denoted as B)"}]}]}
